Measurements taken from ChEMBL document CHEMBL3608203, “Benzylated and prenylated flavonoids from the root barks of Cudrania tricuspidata with pancreatic lipase inhibitory activity” (Bioorg Med Chem Lett, 2015).
Activity calls are given as the source filed them. The rule behind the calls is not given here.

Columns and labels:
[1] = molecular target: T1, Pancreatic triacylglycerol lipase (Sus scrofa) (UniProt P00591); assay: Inhibition of porcine pancreatic lipase at 100 ug/ml pre-incubated for 15 mins before p-nitrophenylbutyrate substrate addition by microplate reader based method
T1 sequence (whole entry): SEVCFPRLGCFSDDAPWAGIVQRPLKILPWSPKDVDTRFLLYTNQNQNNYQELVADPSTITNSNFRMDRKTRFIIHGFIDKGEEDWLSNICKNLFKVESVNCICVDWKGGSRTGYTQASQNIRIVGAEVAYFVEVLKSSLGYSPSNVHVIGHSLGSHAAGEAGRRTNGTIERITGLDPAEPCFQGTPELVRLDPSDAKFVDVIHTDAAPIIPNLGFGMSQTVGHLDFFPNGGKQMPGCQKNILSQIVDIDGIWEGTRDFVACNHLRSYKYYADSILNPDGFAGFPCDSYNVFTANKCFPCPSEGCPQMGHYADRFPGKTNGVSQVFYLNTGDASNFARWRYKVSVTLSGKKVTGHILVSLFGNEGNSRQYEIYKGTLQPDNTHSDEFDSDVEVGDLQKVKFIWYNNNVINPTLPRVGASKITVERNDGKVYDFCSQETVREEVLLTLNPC

[2] = molecular target: T2, Pancreatic triacylglycerol lipase (Sus scrofa, UniProt P00591); assay: Inhibition of porcine pancreatic lipase pre-incubated for 15 mins before p-nitrophenylbutyrate substrate addition by microplate reader based method
T2 sequence (P00591 whole entry): T1 sequence (whole entry)

[3] = molecular target: T1, Pancreatic triacylglycerol lipase (Sus scrofa); assay: Mixed type inhibition of porcine pancreatic lipase pre-incubated for 15 mins before p-nitrophenylbutyrate substrate addition by Lineweaver-Burk plot method

Compound	inhibition [1] [%]	IC50 [2] [µM]	inhibition [3]
CC1(C)C=Cc2c(cc3occc(=O)c3c2O)O1	27.5	> 100	
O=C1c2c(cc(O)c(O)c2O)O[C@H](c2ccc(O)cc2)[C@H]1O	40.1	> 100	
CC(C)(O)CCc1c(O)cc(O)c2c1O[C@@H](c1cc3c(cc1O)OC(C)(C)C=C3)CC2=O	52	84.6	
CC(C)=CCc1c(O)c(Cc2ccc(O)cc2)c(O)c2c1O[C@H](c1ccc(O)cc1)CC2=O	70.1	54.8	
COc1ccc(-c2coc3cc(O)cc(O)c3c2=O)cc1 [BIOCHANIN]	6.1	> 100	
CC(C)=CCc1c(O)cc2c(c1O)C(=O)C[C@@H](c1cc3c(cc1O)OC(C)(C)C=C3)O2 [CUDRAFLAVANONE A]	81.4	6.5	Active
O=C1c2c(O)cc(O)cc2O[C@H](c2ccc(O)cc2)[C@H]1O [DIHYDROKAEMPFEROL]	10.8	> 100	
O=c1c(-c2ccc(O)cc2)coc2cc(O)cc(O)c12 [GENISTEIN]	3.2	> 100	
O=c1c(O)c(-c2ccc(O)cc2)oc2cc(O)cc(O)c12 [KAEMPFEROL]	37	> 100	
O=c1c(O)c(-c2ccc(O)cc2O)oc2cc(O)cc(O)c12 [MORIN]	26.3	> 100	
O=C1C[C@@H](c2ccc(O)cc2)Oc2cc(O)cc(O)c21 [NARINGENIN]	25.2	> 100	
CC(C)=CCc1c(O)cc(O)c2c1OC(c1ccc(O)cc1)CC2=O (configuration not stated) [SOPHORAFLAVANONE B]	55.5	76.9	
CC(C)=CCc1c(O)cc2occ(-c3ccc(O)cc3)c(=O)c2c1O [WIGHTEONE]	49.6	> 100	
